This is an account of results in US20100105685A1, “S-Nitrosothiol Compounds and Related Derivatives” (Galleon Pharmaceuticals, Inc., priority 2006, published 2010).

SMILES strings stand for the structures. “Also recorded” adds a separate entry of the source.

The subject of data set [1] is fentanyl-induced respiratory depression. Kind of data set: Fentanyl-induced respiratory depression model to assess restoration of ventilatory control. It counts as in vivo, Sprague-Dawley male rats. The note with it: rats; for restoration of ventilatory control / reversing the fentanyl-induced respiratory depression: fentanyl 75 to 150 micrograms per kilogram, intravenous infusion.

The conditions of data set [2]: cited from earlier work.
For data set [3], the system named is apnea episodes. To be noted: cited from earlier work.

As to `O=C(O)CCCCN[C@@H](CS)C(=O)O` [GLN 10,013], in data set [1], the “restoration of ventilatory control / reversing the fentanyl-induced respiratory depression” value is given as “successfully restores ventilatory control”. The “reversal of respiratory depression, acute phase” value in data set [1] (fentanyl-induced, acute phase (0 to 5 minutes)) was “reverse respiratory depression”. Also, the “reversal of respiratory depression, chronic phases” value in data set [1] (fentanyl-induced, chronic phases (10 to 50 minutes)) was “reverse respiratory depression”.
Regarding `O=C(O)CNC(=O)[C@H](CS)Nc1nccs1` [GLN 10,015], the “restoration of ventilatory control / reversing the fentanyl-induced respiratory depression” value in data set [1] is given as “not be effective; also recorded: does not restore”.
In the case of `CC(=O)N[C@@H](CS)C(=O)O` [N-acetyl-L-cysteine], the “absorption after oral administration” value in data set [2] was “poorly absorbed”. The “first pass metabolism by the liver” value in data set [2] (oral administration, destroys most of the parent drug) is given as “extensive first pass metabolism”.
In the case of `CC(=O)Nc1nnc(S(N)(=O)=O)s1` [acetazolamide], in data set [3] (central apnea patients, low doses, after one month of treatment (25.5 pre-treatment)), the “apnea episodes after treatment” value is given as 6.8. The “decrease in apnea episodes” value in data set [3] (central apnea patients, low doses, after one month of treatment) is listed as 73%. Also, the “reduction in apnea episodes” value in data set [3] (patients that had predominantly obstructive sleep apnea) is given as “about 25%”.
